Reference: patent US7792665B2, “Method for designing a compound based on the three dimensional structure of phosphoinositide dependent protein kinase 1 (PDK1)” (Medical Research Council, priority 2002, dated 2010)
Changes are numbered by the printed parent chain. Where a SMILES comes first, the peptide text is derived from it. [ ]: non-standard residue; d: D form. pT = C[C@@H](OP(=O)(O)O)[C@H](N)C(=O)O

Legend:
Assay type in all cases: biochemical
[1] = target: T1, mutant of PDK1 in which both Lys76 and Arg131 were changed to Ala (Homo sapiens, UniProt O15530, K76A/R131A); test: PDK1 catalytic activity towards T308tide, activation by peptides, Lys76 and Arg131 to Ala double mutant; settings: peptide 0.3 and 1 mM, compared with PDK1[R131A]
T1 construct: GST (N); made in house; host or cells: human embryonic kidney 293 cells (pEBG2T vector)
T1 sequence (O15530 whole entry K76A/R131A): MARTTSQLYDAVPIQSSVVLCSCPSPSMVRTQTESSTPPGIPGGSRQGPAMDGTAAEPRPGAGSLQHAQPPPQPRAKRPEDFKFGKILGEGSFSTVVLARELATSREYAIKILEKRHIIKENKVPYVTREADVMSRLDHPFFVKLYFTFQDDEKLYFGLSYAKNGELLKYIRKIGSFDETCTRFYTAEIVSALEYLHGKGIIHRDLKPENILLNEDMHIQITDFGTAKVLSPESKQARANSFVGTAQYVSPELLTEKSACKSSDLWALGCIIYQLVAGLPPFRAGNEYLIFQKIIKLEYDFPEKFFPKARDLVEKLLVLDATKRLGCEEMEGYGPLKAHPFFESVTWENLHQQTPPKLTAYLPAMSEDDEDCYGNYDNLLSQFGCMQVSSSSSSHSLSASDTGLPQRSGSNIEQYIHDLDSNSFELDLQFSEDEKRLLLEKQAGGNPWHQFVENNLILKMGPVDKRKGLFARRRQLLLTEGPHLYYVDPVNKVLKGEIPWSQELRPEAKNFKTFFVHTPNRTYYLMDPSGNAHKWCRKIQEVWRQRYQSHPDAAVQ
Procedure: (§1) C. Activation of the indicated forms of PDK1 by 56K-pHM and S6K-HM. PDK1 activity was measured using the peptide substrate (T308tide) in the presence of the indicated concentrations of 56K-pHM (closed circles) and S6K-HM (open circles) as described in the methods. Assays were performed in triplicate and similar results obtained in 2 separate experiments. The results are the average—SD for a single experiment.
(§2) The ability of wild type and mutant PDK1 to phosphorylate the synthetic peptide T308tide ([…] ([Biondi et al., 2000]) (SEQ ID NO:108) was carried out in 30 μl assays containing 100 ng of wild type or mutant PDK1, 50 mM Tris/HCl pH 7.5, 0.1% 13-mercaptoethanol, 10 mM MgCl2, 100 μM [32γ P]ATP (200 cpm/pmol), 0.5 μM microcystin-LR, 1 mM T308tide in the presence or absence of the indicated concentrations of the 56K-pHM peptide ([…](P)YVAPSV) (SEQ ID NO:104) or 56K-HM. peptide ([…]) (SEQ ID NO:105). After incubation for 10 min at 30° C., 25 μl of the resultant mixture was spotted into P81 phosphocellulose paper (2×2 cm) and the papers washed and analysed as described previously for assays of MAP kinase. Control assays were carried out in parallel in which either PDK1, or peptide substrate were omitted; these values were always less than 5% of the activity measured in the presence of these reagents. […]

PDK1[R131A] = target: T2, PDK1[R131A] (Homo sapiens, UniProt O15530, R131A); test: PDK1 catalytic activity towards T308tide, activation by peptides, PDK1[R131A]
T2 construct: GST (N); made in house; host or cells: human embryonic kidney 293 cells (pEBG2T vector)
T2 sequence (O15530 1-556 R131A): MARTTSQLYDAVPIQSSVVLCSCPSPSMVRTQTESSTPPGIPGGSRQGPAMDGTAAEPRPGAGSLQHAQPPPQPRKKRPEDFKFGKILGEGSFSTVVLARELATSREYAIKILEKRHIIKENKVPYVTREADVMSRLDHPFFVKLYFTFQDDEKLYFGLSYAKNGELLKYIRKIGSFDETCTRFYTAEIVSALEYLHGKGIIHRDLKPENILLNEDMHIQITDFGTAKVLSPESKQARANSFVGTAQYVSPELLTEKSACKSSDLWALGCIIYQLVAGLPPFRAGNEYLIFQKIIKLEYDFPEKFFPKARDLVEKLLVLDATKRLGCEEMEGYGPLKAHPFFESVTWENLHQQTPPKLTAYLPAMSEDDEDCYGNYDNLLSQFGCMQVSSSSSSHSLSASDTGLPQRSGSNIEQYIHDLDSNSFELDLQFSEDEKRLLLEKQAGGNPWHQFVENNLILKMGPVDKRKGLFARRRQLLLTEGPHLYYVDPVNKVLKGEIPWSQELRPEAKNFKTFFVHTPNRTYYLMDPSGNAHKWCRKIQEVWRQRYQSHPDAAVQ
Procedure: as §1
The ability of wild type and mutant PDK1 to phosphorylate the synthetic peptide T308tide ([…] ([Biondi et al., 2000]) (SEQ ID NO:108) was carried out in 30 μl assays containing 100 ng of wild type or mutant PDK1, 50 mM Tris/HCl pH 7.5, 0.1% 13-mercaptoethanol, 10 mM MgCl2, 100 μM [32γ P]ATP (200 cpm/pmol), 0.5 μM microcystin-LR, 1 mM T308tide in the presence or absence of the indicated concentrations of the 56K-pHM peptide ([…](P)YVAPSV) (SEQ ID NO:104) or 56K-HM. peptide ([…]) (SEQ ID NO:105). After incubation for 10 min at 30° C., 25 μl of the resultant mixture was spotted into P81 phosphocellulose paper (2×2 cm) and the papers washed and analysed as described previously for assays of MAP kinase. Control assays were carried out in parallel in which either PDK1, or peptide substrate were omitted; these values were always less than 5% of the activity measured in the presence of these reagents. One Unit of PDK1 activity was defined as that amount required to catalyse the phosphorylation of 1 nmol of the T308tide in 1 min.

PDK1[Q150A] = target: T3, PDK1[Q150A] (Homo sapiens, UniProt O15530, Q150A); test: PDK1 catalytic activity towards T308tide, activation by peptides, PDK1[Q150A]; design: made in house
T3 sequence (O15530 1-556 Q150A): T2 sequence (O15530 1-556 R131A) with A131R, Q150A
Procedure: as §1, §2

PDK1[T148A] = target: T4, PDK1[T148A] (Homo sapiens, UniProt O15530, T148A); test: PDK1 catalytic activity towards T308tide, activation by peptides, PDK1[T148A]; design: made in house; settings: T308tide substrate
T4 sequence (O15530 1-556 T148A): T2 sequence (O15530 1-556 R131A) with A131R, T148A
Procedure: as §1, §2

CC(C)C[C@H](NC(=O)[C@H](Cc1ccccc1)NC(=O)[C@@H](NC(=O)[C@H](CCC(N)=O)NC(=O)[C@H](CC(N)=O)NC(=O)[C@H](C)NC(=O)[C@H](CO)NC(=O)[C@H](CCC(=O)O)NC(=O)[C@@H](N)CO)C(C)C)C(=O)NCC(=O)N[C@@H](Cc1ccccc1)C(=O)N[C@H](C(=O)N[C@@H](Cc1ccc(O)cc1)C(=O)N[C@H](C(=O)N[C@@H](C)C(=O)N1CCC[C@H]1C(=O)N[C@@H](CO)C(=O)N[C@H](C(=O)O)C(C)C)C(C)C)[C@@H](C)OP(=O)(O)O [S6K-pHM] (H-SESANQVFLGF[pT]YVAPSV-OH; N-terminus and C-terminus assumed) was tested, and the “activation of Lys76/Arg131 to Ala double mutant” value [1] was “activated even less significantly”, the “activation of PDK1[R131A]” value (PDK1[R131A]; peptide 0.3 and 1 mM) was “only moderately further increased” and the “activation of PDK1[R131A]” value (PDK1[R131A]; peptide below 0.1 mM) was “not significantly activated”. For the same compound, the “activation of PDK1[Q150A]” value (PDK1[Q150A]; peptide 0.3 and 1 mM) was 2-3 fold, the “activation of PDK1[Q150A]” value (PDK1[Q150A]; peptide below 0.1 mM) was “not significantly activated” and the “activation of PDK1[T148A]” value (PDK1[T148A]) was “activated similarly as wild type PDK1”.
